Experimental data as given in the NIST ThermoML archive (doi:10.1021/je1013476).

Experiments:
[1] = xn = mol fraction of the nth substance listed; conditions: 101 kPa, Liquid; for viscosity: Capillary tube (Ostwald / Ubbelohde) method; for mass density: Vibrating tube method
[2] = excess molar enthalpy (molar enthalpy of mixing); xn = mol fraction of the nth substance listed; conditions: 303.15 K, 101 kPa, Liquid, Calvet calorimetry

CCOC(=O)OCC [diethyl carbonate] + CCO
[1]
Conditions | mass density [kg/m3] | viscosity [mPa·s]
288.15 K, x1 = 0.05544 | 813.88 | 1.181
288.15 K, x1 = 0.1 | 828.53 | 1.111
288.15 K, x1 = 0.197 | 856.33 | 0.996
288.15 K, x1 = 0.2998 | 881.02 | 0.917
288.15 K, x1 = 0.4062 | 902.55 | 0.864
288.15 K, x1 = 0.5039 | 919.48 | 0.838
288.15 K, x1 = 0.613 | 935.91 | 0.821
288.15 K, x1 = 0.6939 | 946.73 | 0.815
288.15 K, x1 = 0.7942 | 958.83 | 0.819
288.15 K, x1 = 0.8992 | 970.29 | 0.834
288.15 K, x1 = 0.9744 | 977.89 | 0.856
293.15 K, x1 = 0.05208 | 808.2 | 1.115
293.15 K, x1 = 0.09645 | 822.76 | 1.045
293.15 K, x1 = 0.1983 | 851.8 | 0.93
293.15 K, x1 = 0.2931 | 874.46 | 0.867
293.15 K, x1 = 0.4089 | 897.78 | 0.818
293.15 K, x1 = 0.4945 | 912.58 | 0.794
293.15 K, x1 = 0.6111 | 930.21 | 0.777
293.15 K, x1 = 0.6787 | 939.26 | 0.771
293.15 K, x1 = 0.7692 | 950.39 | 0.77
293.15 K, x1 = 0.8767 | 962.34 | 0.779
293.15 K, x1 = 0.9444 | 969.33 | 0.791
303.15 K, x1 = 0.04589 | 797.14 | 0.937
303.15 K, x1 = 0.09693 | 813.63 | 0.88
303.15 K, x1 = 0.1943 | 840.98 | 0.799
303.15 K, x1 = 0.2843 | 862.32 | 0.747
303.15 K, x1 = 0.4098 | 887.33 | 0.703
303.15 K, x1 = 0.5128 | 904.7 | 0.686
303.15 K, x1 = 0.6176 | 920.01 | 0.678
303.15 K, x1 = 0.6907 | 929.62 | 0.675
303.15 K, x1 = 0.7896 | 941.46 | 0.675
303.15 K, x1 = 0.8863 | 951.96 | 0.681
303.15 K, x1 = 0.9676 | 960.23 | 0.694
313.15 K, x1 = 0.04956 | 789.32 | 0.761
313.15 K, x1 = 0.09649 | 804.16 | 0.715
313.15 K, x1 = 0.207 | 834.28 | 0.647
313.15 K, x1 = 0.2847 | 852.21 | 0.618
313.15 K, x1 = 0.3982 | 874.66 | 0.591
313.15 K, x1 = 0.5049 | 892.56 | 0.578
313.15 K, x1 = 0.6079 | 907.66 | 0.574
313.15 K, x1 = 0.6227 | 909.67 | 0.573
313.15 K, x1 = 0.6895 | 918.3 | 0.575
313.15 K, x1 = 0.7826 | 929.4 | 0.58
313.15 K, x1 = 0.8924 | 941.3 | 0.594
313.15 K, x1 = 0.9563 | 947.79 | 0.606

[2]
Conditions | excess molar enthalpy [kcal/mol]
x1 = 0.06432 | 0.0943
x1 = 0.1113 | 0.152
x1 = 0.1833 | 0.226
x1 = 0.2439 | 0.276
x1 = 0.3034 | 0.317
x1 = 0.3739 | 0.356
x1 = 0.4258 | 0.378
x1 = 0.5066 | 0.395
x1 = 0.5445 | 0.395
x1 = 0.64 | 0.39
x1 = 0.7134 | 0.366
x1 = 0.7663 | 0.335
x1 = 0.8243 | 0.285
x1 = 0.8998 | 0.189
x1 = 0.9557 | 0.0946
